Measured values: patent publication US11897867B2, “6-phenyl-4,5-dihydropyridazin-3(2H)-one derivatives as PDE3A and PDE3B inhibitors for treating cancer” (Bayer Aktiengesellschaft, priority 2017, dated 2024)

What was measured:
[1] = system: HeLa cells (cervical cancer); experiment: Cell proliferation measurement (Cell Titer Glo), HeLa; format: cell-based; conditions: Homo sapiens, 72 h treatment, read-out: Anti-proliferation IC50 HeLa (Cervical cancer)
Description: (§1) The antiproliferative activity of the compounds of the general formula (I) was examined in vitro in human cancer cells. For this purpose, 1000 cells (or 500 HeLa cells) were plated in 384-well plates with appropriate growth medium and incubated at 37° C. overnight. After 24 h, the cells on the test plate were treated with the compounds of the general formula (I) as and incubated at 37° C. for 72 h. The compounds were added to the cells by means of an HP D300 digital dispenser in a 10 (or more)-step dilution series. As control, the cells were treated with vehicle (DMSO at 0.3% final concentration). After 72 h, the cells were treated with 20 μl/well of 50% CTG solution in PBS (Promega Cell Titer Glo (catalogue #G755B and G756B)) and incubated at room temperature for 10 min, and luminescence was measured by means of a VICTOR V (Perkin Elmer), in order to determine cell viability at the end of treatment. The percentage effect on cell growth and the IC50 derived therefrom were determined for each test substance using the values from untreated wells (=percent viability). The IC50 values were calculated using a 4-parameter fit.

SK-MEL-3 (melanoma) = experiment: Cell proliferation measurement (Cell Titer Glo), SK-MEL-3; format: cell-based; conditions: Homo sapiens, SK-MEL3, SK-MEL-3 cells, 72 h treatment, read-out: Anti-proliferation IC50 SK-MEL-3 (melanoma)
Description: as §1

human full length PDE3A = target: T1, human full length PDE3A (Homo sapiens, UniProt Q14432); experiment: PDE3A enzyme inhibition (3H-cAMP Scintillation Proximity Assay); format: biochemical; conditions: PDE3A cell extract from Sf9 cells, 60 min room temperature; read-out: Target IC50 PDE3A IC50
T1 construct: Sf9 cells overexpressing human full length PDE3A; purchased SB Drug Discovery, UK; host or cells: Sf9 cells (cell extract)
T1 sequence (Q14432 whole entry): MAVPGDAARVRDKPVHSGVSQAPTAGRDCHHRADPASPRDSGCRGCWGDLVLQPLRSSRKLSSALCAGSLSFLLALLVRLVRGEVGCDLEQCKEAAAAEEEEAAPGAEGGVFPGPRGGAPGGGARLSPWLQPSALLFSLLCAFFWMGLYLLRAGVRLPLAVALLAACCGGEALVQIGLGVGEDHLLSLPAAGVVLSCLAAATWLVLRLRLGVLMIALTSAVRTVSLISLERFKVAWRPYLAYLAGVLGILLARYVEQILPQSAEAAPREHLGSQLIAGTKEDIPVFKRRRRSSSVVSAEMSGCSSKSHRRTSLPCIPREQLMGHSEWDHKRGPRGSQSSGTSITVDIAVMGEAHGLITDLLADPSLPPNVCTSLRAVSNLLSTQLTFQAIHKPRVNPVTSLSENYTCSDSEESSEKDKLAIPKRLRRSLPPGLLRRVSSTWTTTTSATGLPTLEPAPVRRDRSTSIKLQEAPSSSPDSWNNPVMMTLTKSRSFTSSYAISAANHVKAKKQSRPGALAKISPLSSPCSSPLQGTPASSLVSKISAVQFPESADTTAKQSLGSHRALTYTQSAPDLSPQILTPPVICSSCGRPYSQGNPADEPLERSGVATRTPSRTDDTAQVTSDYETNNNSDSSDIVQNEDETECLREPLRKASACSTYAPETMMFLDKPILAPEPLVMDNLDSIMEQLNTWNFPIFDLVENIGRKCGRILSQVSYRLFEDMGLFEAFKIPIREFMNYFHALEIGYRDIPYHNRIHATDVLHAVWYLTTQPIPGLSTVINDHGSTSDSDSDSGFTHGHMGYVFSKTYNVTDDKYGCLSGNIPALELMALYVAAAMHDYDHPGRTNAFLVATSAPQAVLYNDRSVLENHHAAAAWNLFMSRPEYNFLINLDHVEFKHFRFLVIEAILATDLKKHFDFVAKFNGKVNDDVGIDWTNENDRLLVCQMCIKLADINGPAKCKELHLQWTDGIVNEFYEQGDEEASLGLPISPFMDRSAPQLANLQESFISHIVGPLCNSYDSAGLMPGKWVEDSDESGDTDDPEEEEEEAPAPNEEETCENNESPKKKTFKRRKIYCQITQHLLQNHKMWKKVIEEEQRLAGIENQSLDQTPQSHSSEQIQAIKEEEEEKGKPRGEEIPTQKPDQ
Description: (§2) The commercially available 3H-cAMP Scintillation Proximity Assay (SPA, Perkin Elmer) system was used for enzyme inhibition studies. For the determination of the in vitro effect of test substances on the PDE3A reactions 2 μl of the respective test compound solution in DMSO (serial dilutions) were is placed in wells of microtiter plates (Isoplate-96/200W; Perkin Elmer). 50 μl of a dilution of PDE3A cell extract from Sf9 cells overexpressing human full length PDE3A (SB Drug Discovery, UK) in buffer A (50 mM Tris/HCl pH 7.5, 8.3 mM MgCl2, 1.7 mM EDTA, 0.2% BSA) was added. The dilution of the PDE3A cell extract was chosen such that the reaction kinetics was linear and less than 70% of the substrate was consumed (typical dilution 1:5000). The reaction was started by addition of 50 μl (0.025 μCi) of 1:2000 in buffer A w/o BSA diluted substrate [8-3H] adenosine 3′,5′-cyclic phosphate (1 μCi/μl; Perkin Elmer). After incubation at room temperature for 60 min, the reaction was stopped by addition of 25 μl of a suspension containing 18 mg/ml yttrium scintillation proximity beads (Perkin Elmer) in water. The microtiter plates were sealed and measured in a Microbeta scintillation counter (PerkinElmer Wallac). IC50 values were determined from sigmoidal curves by plotting percentage PDE3A activity vs log compound concentration.

human full length PDE3B = target: T2, human full length PDE3B (Homo sapiens, UniProt Q13370); experiment: PDE3B enzyme inhibition (3H-cAMP Scintillation Proximity Assay); format: biochemical; conditions: PDE3B cell extract from Sf9 cells, 60 min room temperature; read-out: Target IC50 PDE3B IC50
T2 construct: Sf9 cells overexpressing human full length PDE3B; purchased SB Drug Discovery, UK; host or cells: Sf9 cells (cell extract)
T2 sequence (Q13370 whole entry): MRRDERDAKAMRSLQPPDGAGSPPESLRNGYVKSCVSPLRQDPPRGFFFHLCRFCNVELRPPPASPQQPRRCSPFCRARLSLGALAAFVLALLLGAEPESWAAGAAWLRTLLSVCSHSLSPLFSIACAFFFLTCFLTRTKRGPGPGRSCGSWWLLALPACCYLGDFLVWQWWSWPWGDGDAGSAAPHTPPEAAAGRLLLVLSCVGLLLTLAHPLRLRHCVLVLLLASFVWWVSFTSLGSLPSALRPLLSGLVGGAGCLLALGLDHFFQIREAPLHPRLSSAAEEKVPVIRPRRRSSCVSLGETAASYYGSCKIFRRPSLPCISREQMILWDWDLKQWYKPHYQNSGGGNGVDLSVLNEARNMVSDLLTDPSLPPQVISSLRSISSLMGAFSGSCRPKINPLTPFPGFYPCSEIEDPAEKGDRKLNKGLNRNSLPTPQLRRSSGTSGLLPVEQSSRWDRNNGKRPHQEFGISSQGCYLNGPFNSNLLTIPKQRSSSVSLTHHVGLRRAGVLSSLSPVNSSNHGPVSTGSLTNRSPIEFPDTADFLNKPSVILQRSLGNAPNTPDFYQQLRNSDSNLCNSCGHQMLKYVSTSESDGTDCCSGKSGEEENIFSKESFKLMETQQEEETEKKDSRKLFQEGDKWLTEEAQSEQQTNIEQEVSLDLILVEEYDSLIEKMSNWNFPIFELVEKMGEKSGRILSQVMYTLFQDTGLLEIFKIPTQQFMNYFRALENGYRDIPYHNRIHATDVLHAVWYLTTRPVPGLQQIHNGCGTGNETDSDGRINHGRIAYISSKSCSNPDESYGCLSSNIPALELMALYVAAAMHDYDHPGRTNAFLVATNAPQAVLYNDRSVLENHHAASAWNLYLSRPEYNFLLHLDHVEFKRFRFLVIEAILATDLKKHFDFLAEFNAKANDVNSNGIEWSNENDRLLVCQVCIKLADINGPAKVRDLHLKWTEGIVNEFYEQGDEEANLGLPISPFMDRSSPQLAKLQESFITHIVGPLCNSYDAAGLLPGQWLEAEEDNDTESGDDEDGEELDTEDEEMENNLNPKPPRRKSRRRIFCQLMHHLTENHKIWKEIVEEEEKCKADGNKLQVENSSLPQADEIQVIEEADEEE
Description: as §2, with “PDE3B” for “PDE3A”, “were” for “were is”, “1:6000).” for “1:5000).”

| IC50 [1] [nM] | IC50 (SK-MEL-3 (melanoma)) [nM] | IC50 (human full length PDE3A) [nM] | IC50 (human full length PDE3B) [nM] | SMILES |
| --- | --- | --- | --- | --- |
| 4.69 | 7.7 | 250 | 83 | Cc1ccc(-c2ccc(C3=NNC(=O)CC3)cc2F)cc1F [Example 58, 6-(2,3′-difluoro-4′-methyl[1,1′-biphenyl]-4-yl)-4,5-dihydropyridazin-3(2H)-one] |
| 9.26 | 52.4 | 270 | 190 | Cc1ccc(-c2ccc(C3=NNC(=O)CC3)cc2C)cc1F [Example 107, 6-(3′-fluoro-2,4′-dimethyl[1,1′-biphenyl]-4-yl)-4,5-dihydropyridazin-3(2H)-one] |
| 14.6 | 36.3 | 67 | 67 | Cc1cc(C2=NNC(=O)CC2)ccc1-c1cccc(O)c1 [Example 101, 6-(3′-hydroxy-2-methyl[1,1′-biphenyl]-4-yl)-4,5-dihydropyridazin-3(2H)-one] |
| 4.47 | 6.15 | 170 | 170 | O=C1CCC(c2ccc(C3=CCCCC3)c(F)c2)=NN1 [Example 79, 6-(2-fluoro-2′,3′,4′,5′-tetrahydro[1,1′-biphenyl]-4-yl)-4,5-dihydropyridazin-3(2H)-one] |
| 2.02 | 3.6 | 93 | 90 | Cc1cc(F)ccc1-c1ccc(C2=NNC(=O)CC2)cc1 [Example 26, 6-(4′-Fluoro-2′-methylbiphenyl-4-yl)-4,5-dihydropyridazin-3(2H)-one] |
| 45.9 | > 100 | 200 | 180 | Cc1cccc(-c2ccc(C3=NNC(=O)CC3)cc2C)c1 [Example 120, 6-(2,3′-dimethyl[1,1′-biphenyl]-4-yl)-4,5-dihydropyridazin-3(2H)-one] |
| 59.9 | 64.7 | 64 | 36 | COc1cc(-c2ccc(C3=NNC(=O)CC3)cc2F)ccn1 [Example 32, 6-[3-fluoro-4-(2-methoxypyridin-4-yl)phenyl]-4,5-dihydropyridazin-3(2H)-one] |
| 8.57 | 39.2 | 240 | 260 | Cc1cc(C2=NNC(=O)CC2)ccc1-c1c(F)cccc1F [Example 110, 6-(2′,6′-difluoro-2-methyl[1,1′-biphenyl]-4-yl)-4,5-dihydropyridazin-3(2H)-one] |
| 16.1 | 41 | 270 | 220 | Cc1cc(-c2ccc(C3=NNC(=O)CC3)cc2F)ccc1F [Example 84, 6-(2,4′-difluoro-3′-methyl[1,1′-biphenyl]-4-yl)-4,5-dihydropyridazin-3(2H)-one] |
| 34.4 | 47.3 | 160 | 93 | Cc1ncc(-c2ccc(C3=NNC(=O)CC3)cc2F)cn1 [Example 31, 6-[3-fluoro-4-(2-methylpyrimidin-5-yl)phenyl]-4,5-dihydropyridazin-3(2H)-one] |
| 36.3 | 71.2 | 160 | 100 | Cc1ccc(F)c(-c2ccc(C3=NNC(=O)CC3)cc2F)c1 [Example 68, 6-(2,2′-difluoro-5′-methyl[1,1′-biphenyl]-4-yl)-4,5-dihydropyridazin-3(2H)-one] |
| 12.1 | 82 | 170 | 120 | Cc1cc(C2=NNC(=O)CC2)ccc1-c1ccc(F)c(F)c1F [Example 97, 6-(2′,3′,4′-trifluoro-2-methyl[1,1′-biphenyl]-4-yl)-4,5-dihydropyridazin-3(2H)-one] |
| 2.67 | 9.92 | 280 | 200 | Cc1cc(C2=NNC(=O)CC2)ccc1-c1ccc(Cl)cc1 [Example 122, 6-(4′-chloro-2-methyl[1,1′-biphenyl]-4-yl)-4,5-dihydropyridazin-3(2H)-one] |
| 42.3 | > 100 | 61 | 88 | Cc1ncc(-c2ccc(C3=NNC(=O)CC3)cc2C)cn1 [Example 92, 6-[3-methyl-4-(2-methylpyrimidin-5-yl)phenyl]-4,5-dihydropyridazin-3(2H)-one] |
| 7.15 | 33.6 | 230 | 230 | Cc1ccc(-c2ccc(C3=NNC(=O)CC3)cc2C)cc1 [Example 121, 6-(2,4′-dimethyl[1,1′-biphenyl]-4-yl)-4,5-dihydropyridazin-3(2H)-one] |
| 16 | > 100 | 47 | 65 | Cc1cc(C2=NNC(=O)CC2)ccc1-c1ccnc(N)c1 [Example 90, 6-[4-(2-aminopyridin-4-yl)-3-methylphenyl]-4,5-dihydropyridazin-3(2H)-one] |
| 5.39 | 24.7 | 38 | 49 | Cc1ccc(-c2ccc(C3=NNC(=O)CC3)cc2C)cn1 [Example 93, 6-[3-methyl-4-(6-methylpyridin-3-yl)phenyl]-4,5-dihydropyridazin-3(2H)-one] |
| 1.27 | 5.01 | 90 | 49 | O=C1CCC(c2ccc(-c3ccc(F)cc3)c(F)c2)=NN1 [Example 8, 6-(2,4′-Difluorobiphenyl-4-yl)-4,5-dihydropyridazin-3(2H)-one] |
| 41.4 | 70.3 | 660 | 710 | Cc1cc(C2=NNC(=O)CC2)ccc1Cl [Example 11, 6-(4-Chloro-3-methylphenyl)-4,5-dihydropyridazin-3(2H)-one] |
| 51.6 | 68.8 | 150 | 100 | COc1ccc(OC)c(-c2ccc(C3=NNC(=O)CC3)cc2F)c1 [Example 41, 6-(2-fluoro-2′,5′-dimethoxy[1,1′-biphenyl]-4-yl)-4,5-dihydropyridazin-3(2H)-one] |
| 13.7 | 19.3 | 95 | 96 | N#Cc1cccc(-c2ccc(C3=NNC(=O)CC3)cc2F)c1 [Example 47, 2′-fluoro-4′-(6-oxo-1,4,5,6-tetrahydropyridazin-3-yl)[1,1′-biphenyl]-3-carbonitrile] |

| SMILES | IC50 [1] [nM] | IC50 (SK-MEL-3 (melanoma)) [nM] | IC50 (human full length PDE3A) [nM] | IC50 (human full length PDE3B) [nM] |
| --- | --- | --- | --- | --- |
| O=C1CCC(c2ccc(N3CC4CC(C3)C4(F)F)c(C(F)(F)F)c2)=NN1 [Example 21, 6-[4-(6,6-Difluoro-3-azabicyclo[3.1.1]hept-3-yl)-3-(trifluoromethyl)phenyl]-4,5-dihydropyridazin-3(2H)-one] | 2.87 | 5.82 | 82 | 50 |
| Cc1cc(C2=NNC(=O)CC2)ccc1-c1ccccc1O [Example 102, 6-(2′-hydroxy-2-methyl[1,1′-biphenyl]-4-yl)-4,5-dihydropyridazin-3(2H)-one] | 23.4 | > 100 | 460 | 555 |
